The test system of experiment [1] is Arrhythmia in Mice Caused by Aconitine. As to the kind of experiment: Action against arrhythmia in mice caused by aconitine. The format is in vivo, ddY-Male mice. Conditions: Mus musculus. The protocol: A method by Nwangwu, et al (P.U. Nwangwu, T.L. Holcslow and S.J. Stohs: Arch. int. Pharmacodyn. 229, 219-226, 1977) was partly modified and the experiment was carried out. ddY-Male mice weighing 25 to 30 grams were used. One group was composed of four mice.
Arrhythmia was induced by infusion of aconitine at a concentration of 5 μg/ml in saline into a tail vein at the rate of 0.25 ml/min using a perfusion pump in mice anesthetized with Nembutal. Test drugs were administered orally or intraperitoneally 30 minutes prior to the start of infusion of aconitine. Incidentally, lidocaine was given intraperitoneally 15 minutes prior to administration of aconitine.
The status of arrhythmia was judged by an electrocardiographic recording (lead II) and, when the onset time of the arrhythmia was delayed more than "average time of untreated group plus 2SD", it was judged to have antiarrhythmic action. Then ED50 values were calculated by Weil's method from the effective rate at each dosage level.

Experiment [2] relates to Arrhythmia in Dogs Caused by Digitalis. As to the kind of experiment: Arrhythmia in dogs caused by digitalis (digoxin). The format is in vivo, Beagle dogs. Conditions: anesthetized dogs. From the text: Beagle dogs weighing 10 to 14 kg were used. […] The arrhythmia was judged by an electrocardiographic recording (lead II) and, when there was an appearance of descending or ascending big QRS complex, it was judged that ventricular arrhythmia appeared.

Where two headings read alike, the source gives them in different places.

In the case of `CC(C)N(CCC(C(N)=O)(c1ccccc1)c1ccccn1)C(C)C` (centres unmarked) [Disopyramide, reference compound], the ED50 (commonly the dose at which the effect has come halfway, by size or by number of responders) in experiment [1] (ip, read-out: ED50, i.p.) worked out at 12.5 mg/kg; in experiment [1] (po, read-out: ED50, p.o.), 29.7 mg/kg. In experiment [2] (2 mg/kg intravenous), the “Duration of Action” value amounted to 365 s. The “Efficacy Ratio” value in experiment [2] (2 mg/kg intravenous) turned out to be 57.1%.

For `CC(C)CN(CCCC(O)(c1ccccc1)c1ccccc1)CC(C)C` [Example 1, 4-Diisobutylamino-1,1-diphenyl-1-butanol], the 50% effective dose (ED50) in experiment [1] (ip, read-out: ED50, i.p.) was determined as 14.9 mg/kg; in experiment [1] (po, read-out: ED50, p.o.), 17.7 mg/kg. Further, the entries for the “Duration of Action” value in experiment [2] (1 mg/kg intravenous) and in experiment [2] (2 mg/kg intravenous) were 400 s and 515 s, respectively. For the same compound, the “Efficacy Ratio” value in experiment [2] (1 mg/kg intravenous) is reported as 50.0%; in experiment [2] (2 mg/kg intravenous), 62.5%.

`CC(C)CNCCCC(O)(c1ccccc1)c1ccccc1` [Example 10, 1,1-Diphenyl-4-isobutylamino-1-butanol]: the ED50 in experiment [1] (ip, read-out: ED50, i.p.) was determined as 11.5 mg/kg. Also, the ED50 in experiment [1] (po, read-out: ED50, p.o.) stood at 20.3 mg/kg. Also, in experiment [2] (2 mg/kg intravenous), the “Duration of Action” value was determined as 500 s and the “Efficacy Ratio” value was 58.7%.

On to `CCN(CC)CC(=O)Nc1c(C)cccc1C` [Lidocaine, reference compound], for which the ED50 in experiment [1] (ip, read-out: ED50, i.p.) was 35.4 mg/kg. Also, in experiment [2] (2 mg/kg intravenous), the “Duration of Action” value came to 350 s and the “Efficacy Ratio” value is reported as 50.0%.

Values taken from patent US5089529A, “Butanol derivatives” (Nippon Shinyaku Co., Ltd., priority 1983, dated 1992).
